We go through 6 molecules from US11154519B2, “Inhibitors and their uses” (MEDICAL RESEARCH COUNCIL, priority 2015, dated 2021).

Series [1] concerns HeLa cells. Kind of series: Cell death dose response (CellTox green, IncuCyte). Particulars: for Effect on cell death: IncuCyte, 0-20 μM. Format: cell-based. As to the method: Toxicity of the compounds is assessed using Cell viability Counting Kit-8 (Dojindo) or in a Incucyte (Essenbioscience) using both phase contrast and IncuCyte™ Cytotox Green Reagent.
(§1) HeLa cells (40,000 cells/ml) were plated in a 96-well plate and treated with different concentrations (0-20 μM) of a compound as indicated in the presence of 250 ng/ml Tunicamycin for 72 hours. To monitor cell death 1/2000 dilution of the CellTox green dye (Promega) was added to the media. The growth of the cells was monitored over time and pictures taken every 2 hours with the IncuCyte ZOOM system and analysed by the IncuCyte ZOOM software (Essen BioScience). […] Cytoprotection against ER stress can be measured by a suitable assay. In this instance, cytoprotection was measured in HeLa cells in which ER stress was elicited by the addition of media containing tunicamycin, a drug that blocks N-glycosylation, thereby preventing protein folding and inducing the unfolded protein response. Cell viability was then detected in the presence and absence of a compound listed in Table 1 after a set period of time, by monitoring cell growth over time. Cytoprotection from ER stress was measured in terms of the percentage increase in viable cells (relative to control) after ER stress.
EC50 were extrapolated from dose response experiments on cell death. Data from IncuCyte was plotted and analysed in Prism. The “% of cell death” for each data point. For each concentration there is a % of cell death vs time, the area under the curve was taken and plotted against log conc=>EC50 (analysis in Prism).

Series [2] has as its system HeLa cells. Kind of series: Cytoprotection against ER stress (tunicamycin), IncuCyte. The class given is cell-based. Particulars: Homo sapiens, 250 ng/ml Tunicamycin, 72 hours, compound 0-20 μM, read-out: Cytoprotection from Tm (compared to GNB). The method, then:
as §1

A further series addresses T1, PPP1R15B-PP1 (Homo sapiens, UniProt Q5SWA1).
T1 construct: cDNAs encoding amino acids 325-636 of PPP1R15A and 340-698 of PPP1R15B were His-tagged and cloned into pMAL-c5x; made in house; host or cells: R15B: E. coli BL21-Gold (pMAL-c5x); PP1γ: Sf9 insect cells (baculovirus, pDW464)
Kind of series: SPR steady-state binding to R15B-PP1 holophosphatase. Particulars: SPR steady-state, MBP-R15B340-698-His captured on bio-PP1c, 10° C.; read-out: R15B (KD). The method, then:
(§2) PPP1R15A^325-636 and PPP1R15B^340-698 were expressed and purified as follows: the cDNAs encoding amino acids 325-636 of PPP1R15A and 340-698 of PPP1R15B were His-tagged and cloned into pMAL-c5x. Recombinant PPP1R15A/B were expressed in BL21-Gold cells and purified by affinity chromatography on a HisTrap HP column (GE Healthcare), followed by a MBPTrap HP column (GE Healthcare). The proteins were analyzed on BOLT SDS-PAGE 4-12% Bis-Tris gels (Life Technologies) stained with SimplyBlue SafeStain (Life Technologies). cDNA encoding for human PP1γ was cloned into the baculovirus transfer vector pDW464 to add a biotin acceptor peptide (BAP). The vector also encodes for the E. coli biotin holoenzyme synthetase (BirA), so that BAP-tagged proteins can be biotinylated in vivo in Spodoptere frugiperda (Sf9) insect cells (Duffy et al., Anal. Biochem., 262, 122-128, 1998). The Bac-to-Bac baculovirus expression system (Life Technologies) was used to generate the recombinant bacmid DNA and Sf9 insect cells were used to amplify the viral stocks Cultures were harvested by centrifuging at 1,200 g for 15 minutes, cell pellets were resuspended in lysis buffer (50 mM Tris pH 7.4, 150 mM NaCl, 0.2% Triton, 5% Glycerol, 1 PiC tablet (Roche) per 50 ml and 0.2 mM PMSF) and followed by gentle sonication. The protein was first purified on a 5 ml HiTrap Q HP column (GE Healthcare) followed by a HiLoad 16/600 Superdex 200 column (GE Healthcare). The positive fractions confirmed by SDS-PAGE and western blot were pooled, concentrate to ˜1 μM and stored at −80° C.
(§3) A Biacore T200 (GE Healthcare) system was used for all experiments and biotinylated PP1 was captured using a Sensor Chip SA (GE Healthcare, catalog no BR-1005-31). The streptavidin coated surface was activated by 1 min injection with a solution of 50 mM NaOH and 1 M NaCl. Biotin-PP1 was diluted in the running buffer (50 mM Tris pH 7.5, 100 mM NaCl, 0.1 mM EGTA, 1 mM MnCl2, 0.05% Tween 20) and injected at approximately 300 nM concentration directly to streptavidin coated surface for 100 sec or to reach immobilization level of biotin-PP1 corresponding to ˜7000 RU. A blank immobilization was performed for one of the SA sensor chip surface to use as a reference.
(§4) With minor deviations, the same procedure and conditions were used in all binding experiments. Small molecules were stored as 50 mM stock solutions in 100% DMSO. Prior to determining binding constants, serial dilutions of either 12 or 8 concentrations of the compounds were prepared in the running buffer in a 96-well plate. Prior to each compound dilution series the regulatory subunit, R15A or R15B, was diluted to […] in the running buffer and captured on the biotin-PP1 surface, to form the holophosphatase complex on the sensor chip surface. Then, without regenerating the surface, the compound dilution series was injected onto the surface of the chip Sensorgrams were analyzed using the Biacore T200 evaluation software and the binding constants determined based on a steady-state model. Kinetic experiments are carried out using different concentrations of the compound and their respective equilibrium binding levels determined.
(§5) Surface Plasmon Resonance (SPR) was used to measure the binding affinity of compounds to the PPP1R15A/B-PP1 phosphatase complex. Biotin acceptor peptide (BAP) was fused to the N-terminus of PP1γ, which enables the biotinylation of the BAP-tagged protein in Sf9 insect cells. After purification the BAP-PP1γ protein was captured on a streptavidin sensor chip (SA-chip, GE healthcare) to a response level of ˜5.000 RU. Using controlled biotinylation enables orientated and uniform immobilization on the sensor chip surface. The PP1γ was then used to capture PPP1R15A/B and form a holophosphatase complex on the surface of the streptavidin chip. This complex can then be used to test binding of compounds. 10 μM PPP1R15A/B protein concentration was used to form the holophosphatase complex during a 80 s injection. […]

The test system of the next series is R15A or R15B. The experiment in a line: Selective binding towards R15A or R15B (based on SPR). Details: species or system human. The method, then: In one embodiment, the compounds of formula IB inhibit PPP1R15A and PPP1R15B. Inhibition of PPP1R15A and PPP1R15B can be determined from binding analysis. For example, binding can be analysed using SPR (surface plasmon resonance) to obtain KD values. A PPP1R15A and PPP1R15B inhibitor may be defined as a compound where the difference in KD values between R15A and R15B is no more than about 3 fold.
Small molecules were stored as 50 mM stock solutions in 100% DMSO. Prior to determining binding constants, serial dilutions of either 12 or 8 concentrations of the compounds were prepared in the running buffer in a 96-well plate. Prior to each compound dilution series the regulatory subunit, MBP-R15A^325-636-His or MBP-R15B^340-698-His, was diluted to 10 μM in the running buffer and captured on the bio-PP1c surface at a flow rate of 30 μl/min for 1 minute to form the holophosphatase complex on the sensor chip surface. This was followed by 1 minute stabilization period, to wash off any unspecific binding. Then, without regenerating the surface, the compound dilution series was injected onto the surface of the chip at a flow rate of 30 μl/min for 1 minute, followed by 2 minutes dissociation time. After each dilution series the surface was regenerated using 3 M NaCl for 90 seconds. After regeneration, SPR responses generally returned to base levels and the bio-PP1c surface was ready for the next compound dilution series. In order to be able to correct for small variations in DMSO concentration between samples, eight solvent samples ranging from 0.06 to 8% DMSO were injected every 50th cycle. The flow cell temperature was 10° C.
Sensorgrams were analyzed using the Biacore T200 evaluation software and the binding constants determined based on a steady-state model. Kinetic experiments are carried out using different concentrations of the compound and their respective equilibrium binding levels determined.

In the next series the target is T2, PPP1R15A-PP1 complex (Homo sapiens, UniProt O75807).
T2 construct: cDNAs encoding amino acids 325-636 of PPP1R15A and 340-698 of PPP1R15B were His-tagged and cloned into pMAL-c5x; made in house; host or cells: R15A: E. coli BL21-Gold (pMAL-c5x); PP1γ: Sf9 insect cells (baculovirus, pDW464)
Kind of series: SPR steady-state binding to R15A-PP1 holophosphatase. Particulars: SPR steady-state, MBP-R15A325-636-His captured on bio-PP1c, 10° C.; read-out: R15A (KD). The method, then:
as §2, §3, §4, §5

The target of a further series is T3, PP1 (Homo sapiens, UniProt P36873).
T3 construct: made in house; host or cells: Sf9 insect cells (baculovirus, pDW464)
The experiment in a line: SPR binding to PP1 alone. The settings on record: SPR steady-state, bio-PP1c surface. On the technique in general: Surface plasmon resonance follows binding to a sensor surface in real time, without labels.

Series [3] deals with protein synthesis. The experiment in a line: Assessment of translation rates (35S-methionine labelling). Format: cell-based. As to the method:
Cells (90,000 cells/ml) were plated in 12-well plates, treated as indicated, labelled with 100 μCi/mI 35S-methionine (Hartmann Analytic) for 10 minutes at 37° C., washed with ice-cold PBS and lysed in 120 μl Laemmli Buffer. Lysates were boiled at 95° C. for 5 minutes, sonicated and resolved on 4-12% Bolt Bis-Tris Plus Gels (Thermo Fisher Scientific). Gels were then stained with InstantBlue (Expedeon) and analyzed by phosphorimaging and quantified using ImageJ.
By monitoring translation rates as described above, the activities of R15A, R15B and R15A/B inhibitors can be defined as follows (also shown in FIG. 12). An R15A inhibitor has no effect on translation in unstressed cells but prolongs translation attenuation following stress. A selective R15B inhibitor transiently attenuate protein synthesis because R15A compensates for the inhibition of R15B.

The subject of series [4] is protein synthesis. The settings on record: unstressed cells; Tsaytler et al., Science 2011; cited from earlier work.
In the next series the test system is mice. Kind of series: Side effects of Guanabenz: activity of mice after dosing. The class given is in vivo. Particulars: 10 mg/kg oral gavage. As to the method:
To assess whether of a compound of Example 1 had the side effects of Guanabenz, mice (n>3) were gavaged orally with 10 mg/kg of compound or Guanabenz. Their activity was monitored 30 minutes following dosing.
In humans, the adrenergic agonist activity of Guanabenz has side effects including drowsiness and coma at high doses (A. H. Hall, Ann Intern Med 102; 787-788; 1985). Due to of these side effects, Guanabenz is no longer used in human. It is anticipated that Guanabenz derivatives have the side effects of Guanabenz, associated with alpha-2 adrenergic activity.

T1 sequence (Q5SWA1 340-698): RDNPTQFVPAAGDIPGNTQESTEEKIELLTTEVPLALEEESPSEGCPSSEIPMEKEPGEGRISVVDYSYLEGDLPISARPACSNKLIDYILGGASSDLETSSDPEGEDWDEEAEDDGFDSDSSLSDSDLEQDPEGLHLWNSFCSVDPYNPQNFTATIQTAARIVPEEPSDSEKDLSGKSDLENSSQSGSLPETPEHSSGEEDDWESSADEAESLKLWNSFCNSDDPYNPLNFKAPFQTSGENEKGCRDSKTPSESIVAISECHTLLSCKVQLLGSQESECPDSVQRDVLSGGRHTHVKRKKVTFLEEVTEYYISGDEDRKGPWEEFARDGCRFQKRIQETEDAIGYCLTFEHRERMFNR
T1 sequence (P36873 whole entry partner, the tested form may be a part): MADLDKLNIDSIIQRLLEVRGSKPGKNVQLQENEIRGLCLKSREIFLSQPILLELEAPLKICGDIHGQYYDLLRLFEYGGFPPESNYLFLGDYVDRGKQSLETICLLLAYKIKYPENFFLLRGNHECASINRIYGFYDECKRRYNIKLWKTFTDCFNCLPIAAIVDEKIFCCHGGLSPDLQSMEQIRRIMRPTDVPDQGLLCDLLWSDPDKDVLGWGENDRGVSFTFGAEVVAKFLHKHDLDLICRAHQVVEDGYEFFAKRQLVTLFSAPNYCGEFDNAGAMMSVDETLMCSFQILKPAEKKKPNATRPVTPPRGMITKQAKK
T2 sequence (O75807 325-636): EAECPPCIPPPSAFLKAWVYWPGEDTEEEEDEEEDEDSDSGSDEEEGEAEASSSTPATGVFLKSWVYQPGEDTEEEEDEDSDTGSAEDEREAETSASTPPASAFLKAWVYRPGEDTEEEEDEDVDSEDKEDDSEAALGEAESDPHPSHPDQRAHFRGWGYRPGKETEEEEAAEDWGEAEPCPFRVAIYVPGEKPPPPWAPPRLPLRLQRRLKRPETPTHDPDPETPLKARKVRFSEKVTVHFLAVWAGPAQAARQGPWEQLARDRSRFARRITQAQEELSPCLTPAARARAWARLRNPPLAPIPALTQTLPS
T2 sequence (P36873 whole entry partner, the tested form may be a part): as the sequence (P36873 whole entry partner, the tested form may be a part) above
T3 sequence (P36873 whole entry): as the sequence (P36873 whole entry partner, the tested form may be a part) above

Consider `[H]/N=C(\N)NN=Cc1cnc(Cl)nc1Cl` [Compound 2, (E)-2-((2,4-dichloropyrimidin-5-yl)methylene)hydrazine-1-carboximidamide], for which, in the series with HeLa cells [1] (Homo sapiens, area under % cell death vs time curve against log conc, read-out: Effect on cell death ⇒ EC50), the concentration giving a half-maximal response (EC50) worked out at 7.71 µM. Besides, the “Effect on cell death” value with HeLa cells [1] is given as “Yes”. Moreover, the Emax with HeLa cells [2] worked out at 0%. In addition, the Kd at PPP1R15B-PP1 was 9.22 µM; at PPP1R15A-PP1 complex, 46.4 ± 18.3 µM. In addition, in the series on R15A or R15B, the “Selective binding towards R15A or R15B (based on SPR)” value is “R15B (A “selective inhibitor” may be defined as a compound where the difference in KD values between R15A and R15B is greater than 3 fold)”.

Regarding `N=C(N)N/N=C/c1cc(Cl)c(Cl)cc1Cl` [Compound 4, (E)-2-(2,4,5-trichlorobenzylidene)hydrazine-1-carboximidamide], the “Effect on cell death” value with HeLa cells [1] is reported as “No”. Besides, the Kd on PP1 is 332 µM; on PPP1R15B-PP1 it was 0.022 ± 0.02 µM; at PPP1R15A-PP1 complex, 0.457 ± 0.13 µM. In addition, the Emax in the series on HeLa cells [2] amounted to 80%. The “Selective binding towards R15A or R15B (based on SPR)” value in the series on R15A or R15B is “R15AB (A PPP1R15A and PPP1R15B inhibitor may be defined as a compound where the difference in KD values between R15A and R15B is no more than about 3 fold)”.

As to `[H]/N=C(\N)NN=Cc1cccc(F)c1Cl` [Compound 25, (E)-2-(2-chloro-3-fluorobenzylidene)hydrazine-1-carboximidamide], the “Effect on cell death” value with HeLa cells [1] is given as “No”. Also, the dissociation constant Kd worked out at 3.65 µM at PP1, 9.22 ± 0.19 µM at PPP1R15B-PP1 and 6.18 ± 3.31 µM on PPP1R15A-PP1 complex. Further, the Emax with HeLa cells [2] was 54%. Further, the “Selective binding towards R15A or R15B (based on SPR)” value in the series on R15A or R15B was “R15AB (A PPP1R15A and PPP1R15B inhibitor may be defined as a compound where the difference in KD values between R15A and R15B is no more than about 3 fold)”.

Turning to `[H]/N=C(\N)NN=Cc1ccc(F)c(F)c1Cl` [Compound 27, (E)-2-(2-chloro-3,4-difluorobenzylidene)hydrazine-1-carboximidamide], the “Effect on cell death” value with HeLa cells [1] is on record as “No”. Besides, the “Effect on translation ⇒ Inhibits” value in the series on protein synthesis [3] (target(s) concluded to be inhibited) is “R15AB”. The Emax in the series with HeLa cells [2] is 57%. Moreover, the Kd on PPP1R15A-PP1 complex is 10.6 µM.

On to `[H]/N=C(\N)NN=Cc1cc(F)c(F)cc1Cl` [Compound 32, (E)-2-(2-chloro-4,5-difluorobenzylidene)hydrazine-1-carboximidamide], for which, in the series on HeLa cells [1], the “Effect on cell death” value is “No”. The Effect on translation entry in the series with protein synthesis [3] (35S-methionine labelling of cells) is listed as “Persistent”. Further, in the series with HeLa cells [2], the Emax was 100%. For the same molecule, the Kd on PPP1R15B-PP1 came out at 17.3 µM; at PPP1R15A-PP1 complex, 4.82 ± 0.26 µM.

For `N=C(N)N/N=C/c1c(Cl)cccc1Cl` [Guanabenz, reference compound], the protein synthesis result in the series with protein synthesis [4] was “doesn't inhibit protein synthesis in untressed cells”. Moreover, the protein synthesis rates result in the series with protein synthesis [3] (unstressed cells, 10 μM, FIG. 12) is “doesn't inhibit protein synthesis in unstressed cell”. The “activity of mice 30 minutes following dosing” value with mice was “did not move 30 minutes after dosing”.

One may read the EC50 as the concentration giving half of the maximal effect. The Kd is a measure of binding affinity in units of concentration.
